For this data set, the system named is rodent carcinogenicity bioassays, tumor incidence. Briefly: CCRIS carcinogenicity studies. The gist of the method:
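Archive of carcinogenicity, mutagenicity, tumor promotion and tumor inhibition results drawn from journals, NCI reports and other sources, expert-reviewed; covers 1985-2011 and is no longer updated.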

Activity calls are given as the source filed them. No rule for the calls is given here.

Regarding `CN(C)CCN(Cc1cccs1)c1ccccn1`, the carcinogen call reads like this: (Species: RAT, Strain/Sex: F344/FEMALE, Route: ORAL, Dose: 0, 1 G/L IN DEIONIZED DRINKING WATER FOR 12 WK WITH NO TREATMENT DURING WK 5 AND 9 (STUDY DURATION: 121 WK)) “inactive; negative”; (Species: RAT, Strain/Sex: F344/FEMALE, Route: ORAL, Dose: 0, 125, 250 MG/KG IN DIET (TOTAL DOSE: 0; 7; 15 MG/KG) FOR 110 WK (STUDY DURATION: 133 WK), Dose: 0, 125, 250 MG/KG IN DIET (TOTAL DOSE: 0; 7; 15 MG/KG) FOR 110 WK (STUDY DURATION: 133 WK), Tumor Site: Type of Lesion: LIVER: CARCINOMA) “active; positive”; (Species: RAT, Strain/Sex: F344/MALE,FEMALE, Route: ORAL, Dose: 1000 PPM IN DIET FOR 64 WK (INITIAL DOSES AT 2000 PPM), Tumor Site: Type of Lesion: LIVER: HEPATOCELLULAR CARCINOMA, CHOLANGIOCARCINOMA) “active; positive”; (Species: RAT, Strain/Sex: F344/MALE, Route: ORAL, Dose: 0, 125, 250 MG/KG IN DIET (TOTAL DOSE: 0; 7; 14 G/KG) FOR 110 WK (STUDY DURATION: 133 WK), Dose: 0, 125, 250 MG/KG IN DIET (TOTAL DOSE: 0; 7; 14 G/KG) FOR 110 WK (STUDY DURATION: 133 WK), Tumor Site: Type of Lesion: LIVER: CARCINOMA) “active; positive”; (Species: RAT, Strain/Sex: SPRAGUE-DAWLEY/FEMALE, Route: ORAL, Dose: 0, 500, 1000 PPM IN DRINKING WATER 5D/WK FOR LIFE (STUDY DURATION: 576-709 D), Dose: 0, 500, 1000 PPM IN DRINKING WATER 5D/WK FOR LIFE (STUDY DURATION: 576-709 D), Tumor Site: Type of Lesion: LIVER: HEPATOCELLULAR CARCINOMA OR SARCOMA) “active; positive”; (Species: RAT, Strain/Sex: SPRAGUE-DAWLEY/MALE, Route: ORAL, Dose: 0, 500, 1000 PPM IN DRINKING WATER 5D/WK FOR LIFE (STUDY DURATION: 585-760 D), Dose: 0, 500, 1000 PPM IN DRINKING WATER 5D/WK FOR LIFE (STUDY DURATION: 585-760 D), Tumor Site: Type of Lesion: LIVER: HEPATOCELLULAR CARCINOMA) “active; positive”.
For the molecule `CC(I)C1OCC(CO)O1` (centres undefined), the carcinogen call (Species: MOUSE, Strain/Sex: B6C3F1/FEMALE, Route: GAVAGE, Dose: 0, 62, 125 MG/KG IN WATER 5 D/WK FOR 103 WK (STUDY DURATION: 106 WK), Dose: 0, 62, 125 MG/KG IN WATER 5 D/WK FOR 103 WK (STUDY DURATION: 106 WK), Tumor Site: Type of Lesion: FORESTOMACH: SQUAMOUS CELL PAPILLOMA, ANTERIOR PITUTARY GLAND: ADENOMA, HARDERIAN GLAND: ADENOMA, ADENOMA OR CARCINOMA, Tumor Site: Type of Lesion: FORESTOMACH: SQUAMOUS CELL PAPILLOMA, ANTERIOR PITUTARY GLAND: ADENOMA, HARDERIAN GLAND: ADENOMA, ADENOMA OR CARCINOMA) is “active; positive”; the carcinogen call (Species: MOUSE, Strain/Sex: B6C3F1/MALE, Route: GAVAGE, Dose: 0, 125, 250 MG/KG IN WATER 5 D/WK FOR 103 WK (STUDY DURATION: 106 WK), Dose: 0, 125, 250 MG/KG IN WATER 5 D/WK FOR 103 WK (STUDY DURATION: 106 WK)) is “inactive; negative”; the carcinogen call (Species: RAT, Strain/Sex: F344/FEMALE, Route: GAVAGE, Dose: 0, 62, 125 MG/KG IN WATER 5 D/WK FOR 103 WK (STUDY DURATION: 105 WK), Dose: 0, 62, 125 MG/KG IN WATER 5 D/WK FOR 103 WK (STUDY DURATION: 105 WK)) was “inactive; negative”; the carcinogen call (Species: RAT, Strain/Sex: F344/MALE, Route: GAVAGE, Dose: 0, 125, 250 MG/KG IN WATER 5 D/WK FOR 103 WK (STUDY DURATION: 105 WK), Dose: 0, 125, 250 MG/KG IN WATER 5 D/WK FOR 103 WK (STUDY DURATION: 105 WK), Tumor Site: Type of Lesion: HEMATOPOIETIC SYSTEM: MONONUCLEAR CELL LEUKEMIA, THYROID GLAND: FOLLICULAR CELL CARCINOMA) is “active; positive”.
As for `Nc1ccc(-c2ccc(N)c(Cl)c2)cc1Cl`, the carcinogen call (Species: HAMSTER, Route: ORAL, Tumor Site: Type of Lesion: URINARY BLADDER) is “active; positive”; the carcinogen call (Species: RAT, Route: ORAL, Tumor Site: Type of Lesion: EAR (ZYMBAL GLAND), MAMMARY GLAND, INTEGUMENTARY SYSTEM (SKIN), HEMATOPOIETIC SYSTEM, URINARY BLADDER, Tumor Site: Type of Lesion: EAR (ZYMBAL GLAND), MAMMARY GLAND, INTEGUMENTARY SYSTEM (SKIN), HEMATOPOIETIC SYSTEM, URINARY BLADDER) is “active; positive”; the carcinogen call (Species: RAT, Route: SUBCUTANEOUS, Tumor Site: Type of Lesion: MAMMARY GLAND, INTEGUMENTARY SYSTEM (SKIN)) was “active; positive”.
For the molecule `ClC1=CC(c2cc(Cl)ccc2Cl)=C(Cl)[C@H]2O[C@@H]12`, the carcinogen call is “inactive; negative” (Species: MOUSE, Strain/Sex: STRAIN-A/FEMALE, Route: INTRAPERITONEAL, Dose: 0, 0.1, 0.2 UMOL/UL OF DMSO 5, 10 AND 20 µL GIVEN ON DAYS 4, 8 AND 15 AFTER BIRTH, RESPECTIVELY (STUDY DURATION: 28 WK), Dose: 0, 0.1, 0.2 UMOL/UL OF DMSO 5, 10 AND 20 µL GIVEN ON DAYS 4, 8 AND 15 AFTER BIRTH, RESPECTIVELY (STUDY DURATION: 28 WK)) and “inactive; negative” (Species: MOUSE, Strain/Sex: STRAIN-A/MALE, Route: INTRAPERITONEAL, Dose: 0, 0.1, 0.2 UMOL/UL OF DMSO 5, 10 AND 20 µL GIVEN ON DAYS 4, 8 AND 15 AFTER BIRTH, RESPECTIVELY (STUDY DURATION: 28 WK), Dose: 0, 0.1, 0.2 UMOL/UL OF DMSO 5, 10 AND 20 µL GIVEN ON DAYS 4, 8 AND 15 AFTER BIRTH, RESPECTIVELY (STUDY DURATION: 28 WK)).
Turning to `CCN(CC)C(=S)S`, the carcinogen call by setting is: (Species: MOUSE, Strain/Sex: B6C3F1/FEMALE, Route: ORAL, Dose: 0, 500, 4000 PPM IN DIET, Dose: 0, 500, 4000 PPM IN DIET) “inactive; negative”; (Species: MOUSE, Strain/Sex: B6C3F1/MALE, Route: ORAL, Dose: 0, 500, 4000 PPM IN DIET, Dose: 0, 500, 4000 PPM IN DIET) “inactive; negative”; (Species: RAT, Strain/Sex: F344/FEMALE, Route: ORAL, Dose: 0, 1250, 2000 PPM IN DIET, Dose: 0, 1250, 2000 PPM IN DIET) “inactive; negative”; (Species: RAT, Strain/Sex: F344/MALE, Route: ORAL, Dose: 0, 1250, 2000 PPM IN DIET, Dose: 0, 1250, 2000 PPM IN DIET) “inactive; negative”.
For the molecule `CC(=O)O[C@]1(C(C)=O)CC[C@H]2[C@@H]3C[C@H](C)C4=CC(=O)CC[C@]4(C)[C@H]3CC[C@@]21C`, the carcinogen call was “active; positive” (Species: DOG, Route: INTRAMUSCULAR, Tumor Site: Type of Lesion: MAMMARY GLAND) and “inactive; negative” (Species: MONKEY, Strain/Sex: CYNOMOLGUS/FEMALE, Route: ORAL, Dose: 0, 2.5 MG/WOMAN/D HUMAN DOSE EQUIVALENT IN DIET FOR 36 MONTHS BEGINNING 3 MONTHS POST BILATERAL OVARIECTOMY (STUDY DURAT).
With `c1ccc2c(c1)cc1c3ccccc3c3cccc4ccc2c1c43`, the carcinogen call was “active; positive” (Species: MOUSE, Route: DERMAL, Tumor Site: Type of Lesion: INTEGUMENTARY SYSTEM (SKIN)) and “active; positive” (Species: MOUSE, Route: SUBCUTANEOUS, Tumor Site: Type of Lesion: INJECTION SITE).
Regarding `Cc1ccc(C)c(OCCCC(C)(C)C(=O)O)c1`, for the setting “Species: RAT, Strain/Sex: STRAIN-CD/MALE, Route: ORAL, Dose: 30, 300 MG/KG IN DIET FOR 2 YR, Tumor Site: Type of Lesion: LIVER: NEOPLASTIC NODULE, CARCINOMA, TESTES: INTERSTITIAL CELL TUMOR”, the carcinogen call was “active; positive”.
As for `CC(C)(C)NC[C@H](O)COc1cccc2c1CCCC2=O`, the carcinogen call runs as follows: (Species: MOUSE, Strain/Sex: SWISS/MALE, Route: ORAL, Dose: 0, 12, 50, 200 MG/KG/D IN DIET FOR 80 WK (STUDY DURATION: 80 WK), Dose: 0, 12, 50, 200 MG/KG/D IN DIET FOR 80 WK (STUDY DURATION: 80 WK)) “inactive; negative”; (Species: RAT, Strain/Sex: WISTAR/FEMALE, Route: ORAL, Dose: 0, 0.5, 2, 5 MG/KG/D IN DIET FOR 2 YR (STUDY DURATION: 2 YR), Dose: 0, 0.5, 2, 5 MG/KG/D IN DIET FOR 2 YR (STUDY DURATION: 2 YR)) “inactive; negative”; (Species: RAT, Strain/Sex: WISTAR/FEMALE, Route: ORAL, Dose: 0, 5, 30, 180 MG/KG/D IN DIET FOR 2 YR (STUDY DURATION: 2 YR), Dose: 0, 5, 30, 180 MG/KG/D IN DIET FOR 2 YR (STUDY DURATION: 2 YR)) “inactive; negative”; (Species: RAT, Strain/Sex: WISTAR/MALE, Route: ORAL, Dose: 0, 0.5, 2, 5 MG/KG/D IN DIET FOR 2 YR (STUDY DURATION: 2 YR), Dose: 0, 0.5, 2, 5 MG/KG/D IN DIET FOR 2 YR (STUDY DURATION: 2 YR)) “inactive; negative”; (Species: RAT, Strain/Sex: WISTAR/MALE, Route: ORAL, Dose: 0, 5, 30, 180 MG/KG/D IN DIET FOR 2 YR (STUDY DURATION: 2 YR), Dose: 0, 5, 30, 180 MG/KG/D IN DIET FOR 2 YR (STUDY DURATION: 2 YR), Tumor Site: Type of Lesion: LIVER: HEPATOMA) “active; positive”.

The values are drawn from PubChem BioAssay AID1259411 (Chemical Carcinogenesis Research Information System (CCRIS), 2018).
